Source: paper PMC6099728, “Investigation of Hydro-Lipophilic Properties of N-Alkoxyphenylhydroxynaphthalenecarboxamides” (Molecules : A Journal of Synthetic Chemistry and Natural …, 2018)

Assay: Lipophilicity determination by RP-HPLC (capacity factor k / logk)
Assay type: physicochemical
Settings: for logk: isocratic MeOH 72%/H2O 28%, C18 column, 40 °C; for πA (distributive parameter π calculated from logk) / πC (distributive parameter π calculated from logk) / πB (distributive parameter π calculated from logk): π = logkS − logkU; for πA (distributive parameter π calculated from logk): unsubstituted 1a as reference; for πC (distributive parameter π calculated from logk): unsubstituted 1c as reference; for πB (distributive parameter π calculated from logk): unsubstituted 1b as reference
Description: A HPLC separation module Waters Alliance 2695 XE equipped with a Waters Dual Absorbance Detector 2486 (Waters Corp., Milford, MA, USA) was used. A chromatographic column Symmetry® C18 5 µm, 4.6 × 250 mm, Part No. W21751W016 (Waters Corp.) was used. The HPLC separation process was monitored by Empower® 3 Chromatography Manager Software (Waters Corp.). Isocratic elution by a mixture of MeOH p.a. (72%) and H2O-HPLC Mili-Q grade (28%) as a mobile phase was used. The total flow of the column was 1.0 mL/min, the injection was 20 μL, the column temperature was 40 °C, and the sample temperature was 10 °C. A detection wavelength of 210 nm was chosen. The KI methanolic solution was used for the determination of dead time (tD). Retention times (tR) were measured in minutes. Capacity factors k were calculated using the Empower® 3 Chromatography Manager Software according to the formula k = (tR − tD)/tD, where tR is the retention time of the solute, while tD is the dead time obtained using an unretained analyte. Each experiment was repeated three times. Logk, which was calculated from the capacity factor k, is used as the lipophilicity index converted to the logP scale.

Row | SMILES | logk (series A) | πA (distributive parameter π calculated from logk) (series A) | logk (series C) | πC (distributive parameter π calculated from logk) (series C) | logk (series B) | πB (distributive parameter π calculated from logk) (series B)
1 | COc1ccccc1NC(=O)c1cc2ccccc2cc1O [2a] | 0.3982 | 0.09 |  |  |  | 
2 | CCOc1ccccc1NC(=O)c1c(O)ccc2ccccc12 [5c] |  |  | 0.4759 | 0.39 |  | 
3 | CCOc1ccc(NC(=O)c2ccc3ccccc3c2O)cc1 [7b] |  |  |  |  | 0.7700 | 0.15
4 | CCCOc1ccc(NC(=O)c2c(O)ccc3ccccc23)cc1 [10c] |  |  | 0.2622 | 0.72 |  | 
5 | CCCCOc1cccc(NC(=O)c2ccc3ccccc3c2O)c1 [12b] |  |  |  |  | 1.2088 | 1.02
6 | CCOc1cccc(NC(=O)c2ccc3ccccc3c2O)c1 [6b] |  |  |  |  | 0.8353 | 0.36
7 | CCOc1ccccc1NC(=O)c1ccc2ccccc2c1O [5b] |  |  |  |  | 1.0940 | 0.40
8 | CCCOc1cccc(NC(=O)c2ccc3ccccc3c2O)c1 [9b] |  |  |  |  | 1.0215 | 0.69
9 | CC(C)Oc1ccccc1NC(=O)c1c(O)ccc2ccccc12 [14c] |  |  | 0.6145 | 0.66 |  | 
10 | COc1cccc(NC(=O)c2ccc3ccccc3c2O)c1 [3b] |  |  |  |  | 0.6828 | 0.04
11 | CCCOc1ccc(NC(=O)c2cc3ccccc3cc2O)cc1 [10a] | 0.6963 | 0.75 |  |  |  | 
12 | O=C(Nc1ccccc1)c1cc2ccccc2cc1O [1a] | 0.3927 | 0 |  |  |  | 
13 | CCC(C)Oc1cccc(NC(=O)c2ccc3ccccc3c2O)c1 (stereo not drawn) [18b] |  |  |  |  | 1.1291 | 0.95
14 | CC(C)Oc1ccc(NC(=O)c2cc3ccccc3cc2O)cc1 [16a] | 0.6017 | 0.59 |  |  |  | 
15 | CCC(C)Oc1ccccc1NC(=O)c1ccc2ccccc2c1O (stereo not drawn) [17b] |  |  |  |  | 1.4424 | 1.00
16 | CCCOc1cccc(NC(=O)c2c(O)ccc3ccccc23)c1 [9c] |  |  | 0.3209 | 0.65 |  | 
17 | COc1cccc(NC(=O)c2c(O)ccc3ccccc23)c1 [3c] |  |  | 0.1106 | 0.02 |  | 
18 | CCCCOc1ccccc1NC(=O)c1c(O)ccc2ccccc12 [11c] |  |  | 0.8578 | 1.04 |  | 
19 | CC(C)Oc1cccc(NC(=O)c2cc3ccccc3cc2O)c1 [15a] | 0.6723 | 0.61 |  |  |  | 

Row | SMILES | logk (series A) | πA (distributive parameter π calculated from logk) (series A) | logk (series C) | πC (distributive parameter π calculated from logk) (series C) | logk (series B) | πB (distributive parameter π calculated from logk) (series B)
20 | CCCOc1ccccc1NC(=O)c1cc2ccccc2cc1O [8a] | 0.7221 | 0.74 |  |  |  | 
21 | O=C(Nc1ccccc1)c1ccc2ccccc2c1O [1b] |  |  |  |  | 0.6755 | 0
22 | CC(C)Oc1ccc(NC(=O)c2c(O)ccc3ccccc23)cc1 [16c] |  |  | 0.1619 | 0.55 |  | 
23 | CCCCOc1cccc(NC(=O)c2cc3ccccc3cc2O)c1 [12a] | 0.9711 | 1.02 |  |  |  | 
24 | COc1ccccc1NC(=O)c1ccc2ccccc2c1O [2b] |  |  |  |  | 0.8593 | 0.09
25 | CC(C)Oc1ccccc1NC(=O)c1cc2ccccc2cc1O [14a] | 0.6360 | 0.66 |  |  |  | 
26 | CC(C)Oc1cccc(NC(=O)c2c(O)ccc3ccccc23)c1 [15c] |  |  | 0.2214 | 0.57 |  | 
27 | CCCCOc1ccc(NC(=O)c2c(O)ccc3ccccc23)cc1 [13c] |  |  | 0.4604 | 1.05 |  | 
28 | CC(C)Oc1ccccc1NC(=O)c1ccc2ccccc2c1O [14b] |  |  |  |  | 1.2556 | 0.66
29 | CCC(C)Oc1ccc(NC(=O)c2cc3ccccc3cc2O)cc1 (stereo not drawn) [19a] | 0.7977 | 0.09 |  |  |  | 
30 | CCCCOc1ccccc1NC(=O)c1ccc2ccccc2c1O [11b] |  |  |  |  | 1.5122 | 1.08
31 | CCCCOc1cccc(NC(=O)c2c(O)ccc3ccccc23)c1 [12c] |  |  | 0.5161 | 1.00 |  | 
32 | CCCCOc1ccccc1NC(=O)c1cc2ccccc2cc1O [11a] | 0.9136 | 1.08 |  |  |  | 
33 | CC(C)Oc1ccc(NC(=O)c2ccc3ccccc3c2O)cc1 [16b] |  |  |  |  | 0.8648 | 0.59
34 | CCC(C)Oc1cccc(NC(=O)c2cc3ccccc3cc2O)c1 (stereo not drawn) [18a] | 0.8670 | 0.95 |  |  |  | 
35 | CCC(C)Oc1ccccc1NC(=O)c1cc2ccccc2cc1O (stereo not drawn) [17a] | 0.7956 | 1.00 |  |  |  | 
36 | CCOc1ccccc1NC(=O)c1cc2ccccc2cc1O [5a] | 0.5570 | 0.40 |  |  |  | 
37 | CCCCOc1ccc(NC(=O)c2cc3ccccc3cc2O)cc1 [13a] | 0.8961 | 1.08 |  |  |  | 
38 | CCOc1cccc(NC(=O)c2c(O)ccc3ccccc23)c1 [6c] |  |  | 0.1175 | 0.34 |  | 

Row | SMILES | logk (series A) | πA (distributive parameter π calculated from logk) (series A) | logk (series C) | πC (distributive parameter π calculated from logk) (series C) | logk (series B) | πB (distributive parameter π calculated from logk) (series B)
39 | CCOc1ccc(NC(=O)c2cc3ccccc3cc2O)cc1 [7a] | 0.4916 | 0.15 |  |  |  | 
40 | CCC(C)Oc1ccc(NC(=O)c2ccc3ccccc3c2O)cc1 (stereo not drawn) [19b] |  |  |  |  | 1.0518 | 0.94
41 | CCCOc1ccc(NC(=O)c2ccc3ccccc3c2O)cc1 [10b] |  |  |  |  | 0.9588 | 0.75
42 | CCOc1cccc(NC(=O)c2cc3ccccc3cc2O)c1 [6a] | 0.5682 | 0.36 |  |  |  | 
43 | O=C(Nc1ccccc1)c1c(O)ccc2ccccc12 [1c] |  |  | −0.0581 | 0 |  | 
44 | COc1ccc(NC(=O)c2c(O)ccc3ccccc23)cc1 [4c] |  |  | −0.1149 | −0.19 |  | 
45 | CCCOc1ccccc1NC(=O)c1c(O)ccc2ccccc12 [8c] |  |  | 0.6639 | 0.73 |  | 
46 | COc1ccccc1NC(=O)c1c(O)ccc2ccccc12 [2c] |  |  | 0.2518 | 0.05 |  | 
47 | CCC(C)Oc1ccc(NC(=O)c2c(O)ccc3ccccc23)cc1 (stereo not drawn) [19c] |  |  | 0.3621 | 0.91 |  | 
48 | CCCOc1ccccc1NC(=O)c1ccc2ccccc2c1O [8b] |  |  |  |  | 1.3103 | 0.74
49 | CC(C)Oc1cccc(NC(=O)c2ccc3ccccc3c2O)c1 [15b] |  |  |  |  | 0.9355 | 0.61
50 | CCC(C)Oc1cccc(NC(=O)c2c(O)ccc3ccccc23)c1 (stereo not drawn) [18c] |  |  | 0.4129 | 0.91 |  | 
51 | CCOc1ccc(NC(=O)c2c(O)ccc3ccccc23)cc1 [7c] |  |  | 0.0542 | 0.27 |  | 
52 | COc1ccc(NC(=O)c2ccc3ccccc3c2O)cc1 [4b] |  |  |  |  | 0.6239 | −0.15
53 | CCCOc1cccc(NC(=O)c2cc3ccccc3cc2O)c1 [9a] | 0.7672 | 0.69 |  |  |  | 
54 | COc1cccc(NC(=O)c2cc3ccccc3cc2O)c1 [3a] | 0.4055 | 0.04 |  |  |  | 
55 | COc1ccc(NC(=O)c2cc3ccccc3cc2O)cc1 [4a] | 0.3374 | −0.15 |  |  |  | 
56 | CCCCOc1ccc(NC(=O)c2ccc3ccccc3c2O)cc1 [13b] |  |  |  |  | 1.1537 | 1.08
57 | CCC(C)Oc1ccccc1NC(=O)c1c(O)ccc2ccccc12 (stereo not drawn) [17c] |  |  | 0.7927 | 0.98 |  | 
